Where “and” joins values, the source holds several entries; their conditions need not be identical. Identical values can stand only once.
Tests used:
[1] = Pipette flow speed after aerosol treatment; settings: AS; for Pipette flow speed (€), After: before 0.005 ± 0.001
Experimental: Artificial sputum was prepared following protocol as detailed by […] et al (Kirchner, S., et al., Use of artificial sputum medium to test antibiotic efficacy against Pseudomonas aeruginosa in conditions more relevant to the cystic fibrosis lung. Journal of visualized experiments: JOVE, 2012 (64)). Briefly 250 mg of porcine mucin, 200 mg of sperm DNA, 295 mg of diethylene triamine pentaacetic acid (DPTA), 25 mg sodium chloride, 110 mg potassium chloride, 140 mg Tris base were mixed in a volume of 45 ml of distilled water and pH adjusted to 7.0 using Trisbase. The volume of the solution was then adjusted to 50 ml. Further dilutions were then carried out to adjust viscosity as desired. Using a 0.5 ml glass pipette fixed at an angle of 60°, 0.5 ml of sample at 25° C. (ambient room temperature) was sucked up the pipette and the time taken to empty 0.3 ml of the sample was timed in sec. Pipette flow time (€) was calculated as follows: € (ml/sec)=0.3 ml/Time to empty 0.3 ml (sec) Artificial sputa (AS) were prepared as detailed above, and 1.5 ml of artificial sputum was carefully emptied into an endotracheal tube (in triplicates). A volume of 6.0 ml of NAC 10 mg/ml in PBS (pH.7.0) in triplicate was aerosolised using a nebulizer and passed over the sputum samples in the endotracheal tubes kept at 37° C. in a water bath. Similarly, the experiments were repeated using NAC 20 mg/ml in PBS (pH.7.0). The controls only received PBS (pH 7.0). The aerosol delivery time to empty 6.0 ml for each treatment was 25 min. The dynamic viscosity of the sputa was measured before and after using the capillary tube method, whilst the pipette flow time was also measured as described earlier using a 0.5 ml glass pipette. Samples were equilibrated to 25° C. before measurement A similar treatment as in the experiment described above for NAC was carried out using Bromelain (125 and 250 μg/ml) in PBS (pH.7.0) along with control using PBS (pH.7.0). Both dynamic viscosity and pipette flow time was measured as outlined earlier for both artificial and PMP simulated sputa models. Using a combination of NAC (20 mg/ml) with either 125 or 250 μg/ml Bromelain in PBS (pH.7.0), a similar investigation was carried out as outlined earlier and measurements were made for both artificial and simulated sputa models. D=(TREATED)-(UNTREATED/(UNTREATED)×100.

[2] = Pipette flow speed after aerosol treatment; design: species or system human; settings: SS; for Pipette flow speed (€), After: before 0.0137 ± 0.005
Experimental: Six grams of soft PMP mucin was homogenised using a shredder with phosphate buffer saline (PBS) (3.0 ml) with sonification and vortexed until a homogenous mixture was formed, with incubation at 37° C. to remove air bubbles and after which viscosity was adjusted (further dilutions with PBS). The pH was adjusted to 7.0 using either 1.0 M NaOH or 0.1 N Hydrochloric acid. Using a 0.5 ml glass pipette fixed at an angle of 60°, 0.5 ml of sample at 25° C. (ambient room temperature) was sucked up the pipette and the time taken to empty 0.3 ml of the sample was timed in sec. Pipette flow time (€) was calculated as follows: € (ml/sec)=0.3 ml/Time to empty 0.3 ml (sec) A similar investigation as above was carried out to determine a comparative dynamic viscosity and pipette flow time for PMP mucin simulated sputa (SS). A similar treatment as in the experiment described above for NAC was carried out using Bromelain (125 and 250 μg/ml) in PBS (pH.7.0) along with control using PBS (pH.7.0). Both dynamic viscosity and pipette flow time was measured as outlined earlier for both artificial and PMP simulated sputa models. Using a combination of NAC (20 mg/ml) with either 125 or 250 μg/ml Bromelain in PBS (pH.7.0), a similar investigation was carried out as outlined earlier and measurements were made for both artificial and simulated sputa models. D=(TREATED)−(UNTREATED/(UNTREATED)×100.

[3] = Sputum flow speed after mixing with BromAc, DNase and combinations; settings: agent without DNASE: BR(250 ug/ml), NAC(20 mg/ml) or both; 1 hour, 37 deg C; Cont(PBS) 0.0436
Experimental: (§1) Artificial sputa was prepared following methodology with ingredients as in earlier experiments. To 1.5 ml of artificial sputa in a vial was added 0.5 ml of reagent containing the required bromelain, NAC, DNase and their combinations. Control vials included 0.5 ml of PBS only. The mixture was vortex mixed and incubated in a shaker water bath at 37 deg C. At the end of 1 hour, the samples were retrieved, vortex mixed and equilibrated to ambient room temperature before measuring dynamic viscosity and pipette flow.
(§2) Dynamic viscosity was determined using the capillary tube method as in earlier experiments, whilst the pipette flow was evaluated using a 0.5 ml pipette inclined at 60 deg angle. The pipette flow was calculated as shown below.
Pipette flow (€)=0.45 ml sputa/time to empty (sec).

[4] = Dynamic viscosity after mixing with BromAc, DNase and combinations; settings: agent without DNASE: BR(25 ug/ml), NAC(20 mg/ml), or BR(250 ug/ml) + NAC(20 ug/ml); 1 hour, 37 deg C; Cont(PBS) 2.36
Experimental: as §1, §2

[5] = test system: sheep lungs; assay: Ventilated sheep lung model, endotracheal tube plugged with PMP mucin; settings: nebulised twice over 60 minutes; saline showed slight drop
[6] = test system: SPF rabbits; assay: Tolerability study of inhaled BromAc in rabbit model; settings: Ac 20 mg inhaled; 48 h
[7] = Bromelain and acetylcysteine in plasma (ELISA), rabbit tolerability study; settings: 4, 6, 24 and 48 h post-inhalation of 0.1 or 0.25 mg bromelain alone or in combination with acetylcysteine

Compound: CC(=O)N[C@@H](CS)C(=O)O [NAC, N-acetylcysteine]
- D (%), increase of pipette flow speed (€) ([1]; aerosol NAC 10 mg/ml): 28% and 28 ↑ %
- Pipette flow speed (€), After ([1]; aerosol NAC 10 mg/ml): 0.0064 ± 0.003 mL/s
- D (%), increase of pipette flow speed (€) ([1]; aerosol NAC 20 mg/ml): 40% and 40 ↑ %
- Pipette flow speed (€), After ([1]; aerosol NAC 20 mg/ml): 0.007 ± 0.001 mL/s
- D (%), increase of pipette flow speed (€) ([2]; aerosol NAC 10 mg/ml): 34% and 34 ↑ %
- Pipette flow speed (€), After ([2]; aerosol NAC 10 mg/ml): 0.0183 ± 0.001 mL/s
- D (%), increase of pipette flow speed (€) ([2]; aerosol NAC 20 mg/ml): 46% and 46 ↑ %
- Pipette flow speed (€), After ([2]; aerosol NAC 20 mg/ml): 0.02 ± 0.002 mL/s
- Sputum flow speed (€) [3]: 0.05 mL/s
- Dynamic viscosity (¥) [4]: 1.640 cSt
- Minute volume (MV) over 60 minutes [5]: substantial rise in MV
- Incident: Broncho-interstitial pneumonia, multifocal, mild [6]: 1 out of 4
- Incident: Broncho-interstitial pneumonia, multifocal, mild, granulomatous [6]: 3 out of 4
- detection in plasma (ELISA) [7]: not detected
